{"source": "patent US9187492B2", "about": "“Pyripyropene derivative having ACAT2 inhibiting activity and stable to metabolizing enzymes” (School Juridical Person Kitasato Institute, priority 2010, dated 2015)", "key": {"[1]": {"conditions": "female, Sprague-Dawley (SD), rat, microsomes, 6 μg/mL, pH 7.4"}, "in vitro": {"test": "in vitro", "conditions": "female, Sprague-Dawley (SD), rat, microsomes, pH 7.4, Half-life"}}, "data": [{"smiles": "CC(=O)OC[C@@]1(C)[C@@H]2C[C@H](OC(C)=O)[C@@]3(C)Oc4cc(-c5cccnc5)oc(=O)c4[C@H](O)[C@@H]3[C@@]2(C)CC[C@@H]1OC(C)=O", "note": "[PPA, pyripyropene A]", "values": [{"measurement": "Half-life", "setting": "[1]", "result": "<1", "unit": "h"}, {"measurement": "half-life at 6 μg/mL", "setting": "in vitro", "result": 1, "unit": "h"}]}]}
